In brackets after ≈: the same amount, converted by molar mass. Each block holds one compound with its values, some of them ahead of it.
How the values were obtained:
PC-12 [1] = experiment: Neuroprotection against CoCl2-induced toxicity in rat PC12 cells preincubated for 36 hrs followed by CoCl2 addition measured after 12 hrs by MTT assay; type: functional, cell-based
Mus musculus = experiment: Anti-inflammatory activity in Kunming mouse assessed as inhibition of xylene-induced ear edema at 100 mg/kg, ig administered once daily for 7 days relative to control; type: functional; settings: po, 168 h
HUVEC [2] = experiment: Protection against H2O2-induced damage in HUVEC; type: functional, cell-based; settings: Homo sapiens
Bel-7402 [3] = experiment: Antiproliferative activity against human Bel7402 cells after 72 hrs by MTT assay; type: functional, cell-based; settings: Bel-7402, 72 h
HUVEC [4] = experiment: Protection against H2O2-induced damage in HUVEC preincubated for 0.5 hrs followed by H2O2 addition and measured after 12 hrs; type: functional, cell-based; settings: Homo sapiens
ECV-304 [5] = experiment: Protection against H2O2-induced damage in human ECV304 cells preincubated for 24 hrs followed by H2O2 addition and measured after 12 hrs by MTT assay; type: functional, cell-based
HT-29 [6] = experiment: Antiproliferative activity against human HT-29 cells after 72 hrs by MTT assay; type: functional, cell-based; settings: HT-29, 72 h
Thoracic aorta = experiment: Vasodilatory activity in Sprague-Dawley rat thoracic aorta rings assessed as reduction in KCl-induced contraction; type: functional, tissue-based
HeLa [7] = experiment: Antiproliferative activity against human HeLa cells after 72 hrs by MTT assay; type: functional, cell-based
PC-12 [8] = experiment: Neuroprotection against CoCl2-induced toxicity in rat PC12 cells; type: functional, cell-based
HepG2 [9] = experiment: Antiproliferative activity against human HepG2 cells after 72 hrs by MTT assay; type: functional, cell-based; settings: HepG2, 72 h
MCF7 = experiment: Antiproliferative activity against human MCF7 cells after 72 hrs by MTT assay; type: functional, cell-based; settings: MCF7, 72 h
Platelet = experiment: Antiplatelet activity in rabbit platelet rich plasma assessed as inhibition of ADP-induced platelet aggregation by cytometry; type: functional, cell-based; settings: Oryctolagus cuniculus
HepG2 [10] = experiment: Antiproliferative activity against human HepG2 cells; type: functional, cell-based
HeLa [11] = experiment: Antiproliferative activity against human HeLa cells; type: functional, cell-based
BGC-823 = experiment: Antiproliferative activity against human BGC823 cells; type: functional, cell-based
MDCK [12] = experiment: Antiproliferative activity against MDCK cells; type: cell-based; settings: Canis lupus familiaris
HT-29 [13] = experiment: Antiproliferative activity against human HT-29 cells; type: functional, cell-based
[14] = system: Staphylococcus epidermidis; experiment: Antibacterial activity against Staphylococcus epidermidis; type: functional
Staphylococcus aureus = experiment: Antibacterial activity against Staphylococcus aureus; type: functional
A549 = experiment: Antiproliferative activity against human A549 cells; type: functional, cell-based
A2780 = experiment: Antiproliferative activity against human A2780 cells; type: functional, cell-based
Bel-7402 [15] = experiment: Antiproliferative activity against human Bel7402 cells; type: functional, cell-based
HCT-8 = experiment: Antiproliferative activity against human HCT8 cells; type: functional, cell-based
ECV-304 [16] = experiment: Potency index, ratio of ligustrazine EC50 to compound EC50 for protection against H2O2-induced damage in human ECV304 cells; type: functional
HUVEC [17] = experiment: Potency index, ratio of ligustrazine EC50 to compound EC50 for protection against H2O2-induced damage in HUVEC; type: functional, Homo sapiens
[18] = Half life in Sprague-Dawley rat at 20 mg/kg, iv; type: ADME, organism-based; settings: in vivo
MDCK [19] = experiment: Antiproliferative activity against MDCK cells at 10 uM after 72 hrs by MTT assay relative to control; type: cell-based, Canis lupus familiaris; settings: dog
HepG2 [20] = experiment: Antiproliferative activity against human HepG2 cells at 10 uM after 72 hrs by MTT assay relative to control; type: functional

SMILES: COc1cc(COCc2nc(C)c(C)nc2C)ccc1OCc1nc(C)c(C)nc1C
- EC50 (PC-12 [1]): 1.07 µM

SMILES: Cc1nc(C)c(COC(=O)c2cc(O)c3c(c2)C(=O)c2cccc(O)c2C3=O)nc1C
- inhibition in vivo at 100 mg/kg (Mus musculus): 76.4%

SMILES: Cc1nc(C)c(CNC(=O)C(O)c2ccccc2)nc1C (configuration not stated)
- EC50 (HUVEC [2]): 55 µM

- IC50 (Bel-7402 [3]): > 20 µM
- IC50 (HT-29 [6]): > 20 µM
- EC50 (Thoracic aorta): 2330 µM
- IC50 (HeLa [7]): > 20 µM
- IC50 (HepG2 [9]): > 20 µM
- IC50 (MCF7): > 20 µM
SMILES: Cc1nc(C)c(C)nc1C [LIGUSTRAZINE]
- EC50 (HUVEC [2]): 600 µM
- EC50 (HUVEC [4]): 788 µM
- EC50 (PC-12 [1]): 64.5 µM
- EC50 (ECV-304 [5]): 549 µM
- EC50 (PC-12 [8]): 60 to 64.5 µM

- IC50 (Platelet): 49900 µM
SMILES: COc1ccc(C(=O)NCc2cccnc2)cc1C(=O)NCc1cccnc1 [PICOTAMIDE]

- IC50 (Platelet): 2790 µM
SMILES: COc1ccc(C(=O)NCc2nc(C)c(C)nc2C)cc1C(=O)NCc1nc(C)c(C)nc1C

- IC50 (HepG2 [10]): 2.27 µM
- IC50 (HeLa [11]): 2.38 µM
- IC50 (BGC-823): 2.48 µM
- IC50 (HT-29 [13]): 2.35 µM
SMILES: Cc1nc(C)c(COC(=O)[C@]23CCC(C)(C)C[C@H]2C2=CC[C@@H]4[C@@]5(C)CC[C@H](OC(=O)[C@@H](N)CCCCN)C(C)(C)[C@@H]5CC[C@@]4(C)[C@]2(C)CC3)nc1C
- IC50 (MDCK [12]): 2.31 µM

- EC50 (Thoracic aorta): 751 µM
SMILES: CCOC(=O)c1ccc(OCc2ccc(OCc3nc(C)c(C)nc3C)cc2)cc1

- EC50 (Thoracic aorta): 379 µM
SMILES: Cc1nc(C)c(COc2ccc(COC(=O)c3cccnc3)cc2)nc1C

- EC50 (Thoracic aorta): 93 µM
SMILES: Cc1nc(C)c(C(=O)Oc2ccc(CO[N+](=O)[O-])cc2)nc1C

- MIC [14]: 4 µg/mL (≈ 9.16 µM)
- MIC (Staphylococcus aureus): 8 µg/mL (≈ 18.3 µM)
SMILES: Cc1nc(C)c(COc2ccc(N3CC(CNC(=O)CCl)OC3=O)cc2F)nc1C (configuration not stated)

- IC50 (A549): 5.89 µg/mL (≈ 9.25 µM)
- IC50 (A2780): 5.54 µg/mL (≈ 8.7 µM)
- IC50 (Bel-7402 [15]): 6.39 µg/mL (≈ 10 µM)
- IC50 (HCT-8): 7.11 µg/mL (≈ 11.2 µM)
- IC50 (BGC-823): 5.47 µg/mL
SMILES: COc1cc(/C=C/C(=O)CC(=O)/C=C/c2ccc(OCc3nc(C)c(C)nc3C)c(OC)c2)ccc1OCc1nc(C)c(C)nc1C

- IC50 (HepG2 [10]): 2 µM
- IC50 (HeLa [11]): 3.26 µM
- IC50 (BGC-823): 3.06 µM
- IC50 (HT-29 [13]): 2.5 µM
SMILES: Cc1nc(C)c(COC(=O)[C@]23CCC(C)(C)C[C@H]2C2=CC[C@@H]4[C@@]5(C)CC[C@H](OC(=O)CN)C(C)(C)[C@@H]5CC[C@@]4(C)[C@]2(C)CC3)nc1C
- IC50 (MDCK [12]): 4.88 µM

SMILES: Cc1nc(C)c(C(=O)NC(=N)NCc2cccc(Cl)c2)nc1C
- EC50 (ECV-304 [5]): 59 µM
- Ratio EC50 (ECV-304 [16]): 10

SMILES: Cc1nc(C)c(CCOc2cccc3c2C(=O)c2c(OCCc4nc(C)c(C)nc4C)cc(C(=O)O)cc2C3=O)nc1C
- inhibition in vivo at 100 mg/kg (Mus musculus): 17.5%

SMILES: COc1cc(C(=O)c2cccc(N(C)C)c2)ccc1OCc1nc(C)c(C)nc1C
- EC50 (PC-12 [8]): 17.4 µM

SMILES: COc1ccc(/C=C/c2nc(C)c(C)nc2C)c(OC)c1OC
- EC50 (HUVEC [4]): 5.76 µM

SMILES: Cc1nc(C)c(/C=C/c2ccccc2Cl)nc1C
- EC50 (HUVEC [4]): 0.0249 µM
- Ratio EC50 (HUVEC [17]): 30000

- half-life [18]: 3.03 h
SMILES: CCOC(=O)/C=C/c1cc(OC)c(OC(=O)c2nc(C)c(C)nc2C)c(OC)c1

- EC50 (Thoracic aorta): 751 µM
SMILES: Cc1nc(C)c(COc2ccc(COc3ccc(C=O)cc3)cc2)nc1C

SMILES: Cc1nc(C)c(CNC(=O)c2ccncc2)nc1C
- EC50 (HUVEC [2]): 37 µM

SMILES: COc1cc(C(=O)OCc2nc(C)c(C)nc2C)ccc1OCc1nc(C)c(C)nc1C
- EC50 (PC-12 [8]): 4.25 µM

SMILES: COc1cccc(/C=C/c2nc(C)c(C)nc2C)c1O
- EC50 (HUVEC [4]): 28.9 µM

SMILES: CNC(=N)NC(=O)c1nc(C)c(C)nc1C
- EC50 (ECV-304 [5]): 97 µM

SMILES: Cc1nc(C)c(C(=O)NC(=N)NCc2ccc(Cl)c(Cl)c2)nc1C
- EC50 (ECV-304 [5]): 94 µM

SMILES: Cc1nc(C)c(COCc2ccc(OCc3nc(C)c(C)nc3C)cc2)nc1C
- EC50 (PC-12 [1]): 1.66 µM

SMILES: Cc1nc(C)c(COCCc2ccc(OCc3nc(C)c(C)nc3C)cc2)nc1C
- EC50 (PC-12 [1]): 2.03 µM

SMILES: Cc1nc(C)c(COc2ccc(N3CC(CNC(=O)CCl)OC3=O)cc2)nc1C (configuration not stated)
- MIC [14]: 8 µg/mL (≈ 19.1 µM)
- MIC (Staphylococcus aureus): 8 µg/mL (≈ 19.1 µM)

- IC50 (A549): 6.52 µg/mL (≈ 17.7 µM)
- IC50 (A2780): 6.52 µg/mL (≈ 17.7 µM)
- IC50 (Bel-7402 [15]): 6.5 µg/mL (≈ 17.6 µM)
- IC50 (HCT-8): 6.28 µg/mL (≈ 17 µM)
- IC50 (BGC-823): 6.81 µg/mL
SMILES: COc1cc(/C=C/C(=O)CC(=O)/C=C/c2ccc(O)c(OC)c2)ccc1O [CURCUMIN]

SMILES: CC(=O)OC(C(=O)NCc1nc(C)c(C)nc1C)c1ccccc1 (configuration not stated)
- EC50 (HUVEC [2]): 70 µM

- IC50 (Bel-7402 [3]): 4.19 µM
- IC50 (HT-29 [6]): 5.23 µM
- IC50 (HeLa [7]): 4.34 µM
- IC50 (HepG2 [9]): 4.48 µM
- IC50 (MCF7): 4.23 µM
SMILES: Cc1nc(C)c(COC(=O)[C@]23CC[C@@H](C(C)C)[C@H]2[C@@H]2CC[C@@H]4[C@@]5(C)CC[C@H](O)C(C)(C)[C@@H]5CC[C@@]4(C)[C@]2(C)CC3)nc1C
- Activity (MDCK [19]): 26.5%
- Activity (HepG2 [20]): 99.87%

SMILES: Cc1nc(C)c(COC(=O)CC[C@@H](C)[C@H]2CC[C@H]3[C@@H]4CC[C@@H]5C[C@H](O)CC[C@]5(C)[C@H]4C[C@H](O)[C@]23C)nc1C
- IC50 (A549): 6.69 µg/mL (≈ 12.7 µM)
- IC50 (A2780): 6.62 µg/mL (≈ 12.6 µM)
- IC50 (Bel-7402 [15]): 8.01 µg/mL (≈ 15.2 µM)
- IC50 (HCT-8): 7.43 µg/mL (≈ 14.1 µM)
- IC50 (BGC-823): 6.66 µg/mL

SMILES: O=C(O)c1cc(O)c2c(c1)C(=O)c1cccc(O)c1C2=O [RHEIN]
- inhibition in vivo at 100 mg/kg (Mus musculus): 65.5%

- IC50 (HepG2 [10]): 21.4 µM
- IC50 (HeLa [11]): 8.68 µM
- IC50 (HT-29 [13]): > 25 µM
SMILES: Cc1nc(C)c(COC(=O)[C@]23CCC(C)(C)C[C@H]2C2=CC[C@@H]4[C@@]5(C)CC[C@H](O)C(C)(C)[C@@H]5CC[C@@]4(C)[C@]2(C)CC3)nc1C

SMILES: COc1ccc(/C=C/C(=O)NCc2nc(C)c(C)nc2C)c(OC)c1OC
- EC50 (PC-12 [8]): 25 µM
